Reference: paper PMC6430730, “A short peptide potentially promotes the healing of skin wound” (Bioscience Reports, 2019)
Where a SMILES comes first, the peptide text is derived from it.

Experiments:
B. subtilis (ATCC 19659) = test: Antimicrobial activity assay (agar hole diffusion); type: cell-based, Bacillus subtilis; design: key: +: Possessing antimicrobial activity; -: Possessing no antimicrobial activity; conditions: Amp (1 mg/ml), 7 μl in agar hole, 16–18 h, 37°C
Procedure: (§1) The antimicrobial activity of OA-GL12 was performed based on our previous research. Briefly, fungal strain Candida albicans (ATCC 14053), Gram-positive bacterial strains Staphylococcus epidermidis (ATCC 12228), Staphylococcus haemolyticus (ATCC 29970), and Bacillus subtilis (ATCC 19659), Gram-negative bacterial strains Escherichia coli (ATCC 25922) were obtained from the Kunming Medical University. The microbes were cultivated in LB broth to OD600 = 0.8. A 10-μl aliquot of the bacteria was collected and added to fresh LB (10 ml) broth with 1% Type I agar (Sigma–Aldrich, St. Louis, MO, U.S.A.), and then poured into a 90-mm Petri dish. A micro hole was made after the agar was solidified, and a 7-μl aliquot of OA-GL12 (1 mM) was added to the hole. Petri dish was placed for 16–18 h at 37°C. As the symbol of antimicrobial activity, a clear zone appeared on the surface of the agar just like ampicillin (1 mg/ml), positive control, which represented the antimicrobial ability of OA-GL12.

C. albicans (ATCC 14053) = test: Antimicrobial activity assay (agar hole diffusion); type: cell-based, Candida albicans; design: key: +: Possessing antimicrobial activity; -: Possessing no antimicrobial activity; conditions: Amp (1 mg/ml), 7 μl in agar hole, 16–18 h, 37°C
Procedure: as §1

E. coli (ATCC 25922) = test: Antimicrobial activity assay (agar hole diffusion); type: cell-based, Escherichia coli; design: key: +: Possessing antimicrobial activity; -: Possessing no antimicrobial activity; conditions: Amp (1 mg/ml), 7 μl in agar hole, 16–18 h, 37°C
Procedure: as §1

[1] = system: S. haemolyticus (ATCC 29970); test: Antimicrobial activity assay (agar hole diffusion); type: cell-based, Staphylococcus haemolyticus; design: key: +: Possessing antimicrobial activity; -: Possessing no antimicrobial activity; conditions: Amp (1 mg/ml), 7 μl in agar hole, 16–18 h, 37°C
Procedure: as §1

[2] = system: S. epidermidis (ATCC 12228); test: Antimicrobial activity assay (agar hole diffusion); type: cell-based, Staphylococcus epidermidis; design: key: +: Possessing antimicrobial activity; -: Possessing no antimicrobial activity; conditions: Amp (1 mg/ml), 7 μl in agar hole, 16–18 h, 37°C
Procedure: as §1

HaCaT cells [3] = test: Cytotoxicity of Gefitinib on HaCaT cells; type: cell-based, human; conditions: Gefitinib 1 μM, 24 h; data not shown
HaCaT cells [4] = test: Cellular wound healing (scratch) assay, HaCaT; type: cell-based, human; conditions: MMC 10 µg/ml alone, 24 h; vehicle 53.39 ± 10.11%; mean ± S.D., n=9
Procedure: (§2) Cellular wound healing activity assay was performed as previous research. Briefly, human keratinocytes (HaCaT) (KCB 200442YJ) and human skin fibroblasts (HSF) (KCB 200537) were provided by Conservation Genetics CAS Kunming Cell Bank of Kunming Institute of Zoology, the Chinese Academy of Sciences, and cultured in Dulbecco’s modified Eagle’s medium (DMEM, BI, Israel) with 10% FBS (BI, Israel) and penicillin (100 units/ml)–streptomycin (100 units/ml) in a humidified atmosphere of 5% CO2 (37°C). The possible mycoplasma contamination was excluded by the EZ-PCR mycoplasma contamination detection kit (20-700-20, BI). Cell monolayer formation was formed by culturing the HaCaT and HSF (2.5 × 10^5 cells/well) cells in 24-well plates for 12–24 h with serum starvation and then made to the mechanical scratch wound by a sterile pipette tip (Axygen, U.S.A.). After washing with PBS twice to detach dead cells, cells monolayer was then cultured for next periods (from 0 to 24 h) in a serum-free basal medium (500 μl) with the continued presence of OA-GL12. The same volume of DMEM without OA-GL12 was made as vehicle. […] Cell migration activity was expressed as the percentage of the gap relative to the full area of the scratch using ImageJ software (National Institutes of Health, Bethesda, MD, U.S.A.) to evaluate the repair rate of scarification.

HSF cells = test: Cellular wound healing (scratch) assay, HSF; type: cell-based, human; conditions: MMC 10 µg/ml alone, 24 h; vehicle 38.96 ± 3.34%; mean ± S.D., n=9
Procedure: as §2

[5] = system: full-thickness skin wound mice; conditions: in vivo
Procedure: Adult male mice (22–25 g) from the same generation were purchased from Hunan SJA Laboratory Animal Co., Ltd (Certificate number 43004700043639, China). […] Mice were made full-thickness skin wound models after 7 days’ acclimation. Briefly, mice were anesthetized by intraperitoneal injection (i.p.) with 1% sodium pentobarbital (0.1 ml/20 g body weight). Dorsal hair were shaved by an electric clipper and sterilized with 75% alcohol. Two full-thickness skin wounds (8 × 8 mm) were surgically made on the back. After the surgery, the mice were placed in comfortable cages until they recovered from anesthesia. Nine mice were randomly divided into three groups. […] The left-sided wounds of the two groups were treated with the same volume of normal saline as vehicle, and the last group treated with 1 mg/ml KangFuXin (KFX, the ethanol extract of the American cockroach, Inner Mongolia Jingxin Pharmaceutical Co. Ltd, China, Z15020805) as positive control. Wounds were treated twice daily with samples and photographed at intervals of 2 days.
The condition of wounds was documented; then ImageJ software was used to estimate the wound areas (percentage of residual wound area to initial areas). […]

mice = test: Acute toxicity assay; type: in vivo; conditions: for Mortality (%): 3 male and 3 female mice, observed 2 weeks
Procedure: Two phases of acute toxicity were performed as previous study. Lethal concentration of OA-GL12 was tested at 5, 10, 25, and 50 μmol/kg by i.p. in mice, while using saline as negative control. The mortalities, toxic effects, and behavioral changes were observed and recorded for 2 weeks.

human erythrocytes = test: Hemolytic activity assay; type: cell-based
Procedure: Hemolytic activity assay was performed according to previous research. Briefly, erythrocytes were triply and softly washed with 0.9% normal saline. Then cells were incubated with various concentrations of OA-GL12 for 30 min (37°C), while 0.1% Triton X-100 as maximum hemolysis. The absorbance of supernatant was read at 540 nm after centrifugation with 3000×g for 4 min at room temperature. The numeric data of hemolytic activity (%) was calculated by [(Asample) × 100]/Atriton x-100.

[6] = DPPH free radical scavenging; type: physicochemical; conditions: 30 min, room temperature, A517
Procedure: 2,2′-azino-bis (3-ethylbenzothiazoline-6-sulphonic acid) (ABTS) and 2,2-diphenyl-1-picrythydrazyl (DPPH)) scavenging activities of OA-GL12 were assessed referring to previous studies. Briefly, a stock solution of ABTS radical was prepared by incubating 2.8 mM potassium persulphate (Sigma–Aldrich, St. Louis, MO, U.S.A.) with 7 mM ABTS in water for no less than 6 h in the dark, and used immediately. The stock solution was diluted 50-fold with double distilled water. Dissolved samples with ultrapure water were added to the diluted stock solution, while the same volume of solvent was used as the blank, and Vitamin C as the positive control. The reaction was in the dark for 30 min. […] Meanwhile, the assay mixture contained 190 μl of 5 × 10^−5 M DPPH radical (Sigma–Aldrich, St. Louis, MO, U.S.A.) dissolved in ethanol and 10 μl of sample solution. The mixture was then incubated in a 96-well microtiter plates at room temperature for 30 min. Subsequently, the absorbance was measured at 517 nm. The free radical scavenging activity (%) was calculated by (Ablank − Asample) × 100/Ablank.

In the case of `CC1(C)S[C@@H]2[C@H](NC(=O)[C@H](N)c3ccccc3)C(=O)N2[C@H]1C(=O)O` [Amp, ampicillin], the Antimicrobial activity (B. subtilis (ATCC 19659)) is reported as “+”, the Antimicrobial activity (C. albicans (ATCC 14053)) is reported as “+” and the Antimicrobial activity (E. coli (ATCC 25922)) is reported as “+”. The Antimicrobial activity [1] was “+” and the Antimicrobial activity [2] was “+”.

In the case of `COc1cc2ncnc(Nc3ccc(F)c(Cl)c3)c2cc1OCCCN1CCOCC1` [Gefitinib], the “cytotoxicity on HaCaT cells” value (HaCaT cells [3]) is reported as “no obvious cytotoxicity”.

In the case of `CO[C@@]12[C@H](COC(N)=O)C3=C(C(=O)C(C)=C(N)C3=O)N1C[C@@H]1N[C@@H]12` [MMC, mitomycin C], the “healing rate of HaCaT cell scratch” value (HaCaT cells [4]) is reported as 26.66 ± 4.64% and the “scratch healing of HSF cells” value (HSF cells) is reported as 22.78 ± 5.22%.

With `CC[C@H](C)[C@H](NC(=O)CNC(=O)[C@H](CO)NC(=O)[C@H](CC(C)C)NC(=O)[C@H](CC(C)C)NC(=O)CN)C(=O)N[C@@H](CC(N)=O)C(=O)N[C@@H](C)C(=O)N[C@@H](CCC(=O)O)C(=O)N[C@@H](Cc1c[nH]c2ccccc12)C(=O)N1CCC[C@H]1C(=O)N[C@@H](CS)C(=O)O` [OA-GL12] (H-GLLSGINAEWPC-OH) the “adverse effects on mouse body weight, general health, or behavior” value [5] was “No adverse effects”, the “Mortality (%)” value (mice; 5 μmol/kg i.p.) was 0% and the “Mortality (%)” value (mice; 10 μmol/kg i.p.) was 0%. For the same compound, the “Mortality (%)” value (mice; 25 μmol/kg i.p.) was 0%, the “Mortality (%)” value (mice; 50 μmol/kg i.p.) was 0% and the “death and abnormal behaviors (tremor, retardation, irritability, piloerection, stiffness of tail)” value (mice; i.p. injection, 2 weeks) was “no death and other abnormal behaviors”. The “hemolytic activity on human erythrocytes in vitro” value (human erythrocytes) was “negligible hemolytic activity”.

For `O=C1O[C@H]([C@@H](O)CO)C(O)=C1O` [Vitamin C], the DPPH scavenging activity ([6]; 0.063 μM) was “nearly inactive” and the DPPH scavenging ([6]; 1 μM, mean ± S.D., n=3) was 7.71 ± 0.56%.

For Triton X-100, the “Hemolytic ratio (%)” value (human erythrocytes; 0.1% Triton X-100 as maximum hemolysis, 30 min, 37°C, A540) was 100%.
